Measurements from patent publication US7465752B2, “Pentenoic acid derivatives, processes for the preparation thereof, pharmaceutical compositions comprising them, and therapeutic applications thereof” (Merck Patent GmbH, priority 2004, dated 2008).

Legend:
[1] = system: db/db mice; conditions: 100 mg/kg/day orally for 15 days
Procedure: The antidiabetic and hypolipidaemiant activity of the compounds was determined orally on db/db mice.
Nine-week-old db/db mice are treated orally for 15 days with the compound of Example 6 (100 mg/kg/day). Each group studied comprises seven animals. After treatment for 15 days, retro-orbital samples are taken under mild anaesthesia and after fasting for four hours.
The following parameters were measured:
Assay of the glycaemia (glucose oxidase) and of the lipid parameters on the sera at D15 (COBAS): triglycerides, total cholesterol (CHOL), HDL cholesterol (HDL-C) and free fatty acids (FFA) (BioMérieux and Waco Chemicals assay kit).
The measurements reported represent mean values±standard error.

[2] = system: GaI4 alone; conditions: vector expressing GaI4 alone, in the presence of the product
Procedure: (§1) CV-1 cells (monkey kidney cells) are co-transfected with an expression vector for the chimeric proteins PPARα-GaI4 or PPARγ-GaI4 and with a “reporter” plasmid that allows the expression of the luciferase gene placed under the control of a promoter comprising GaI4 response elements.
(§2) The cells are plated into 96-well microplates and co-transfected using a commercial reagent with the reporter plasmid (pG5-tk-pGL3) and the expression vector for the chimeric protein (PPARα-GaI4 or PPARγ-GaI4). After incubating for 4 hours, whole culture medium (comprising 10% foetal calf serum) is added to the wells. After 24 hours, the medium is removed and replaced with whole medium comprising the test products (50 μM final). The products are left in contact with the cells for 18 hours. The cells are then lysed and the luciferase activity is measured using a luminometer.

[3] = target: chimeric protein PPARγ-GaI4 (Homo sapiens, UniProt P37231); conditions: 50 μM, 18 hours contact, CV-1 cells
Procedure: (§3) The measurement of the PPAR activation was performed according to a lo technique described by Lehmann et al. (1995, J. Biol. Chem., 270, 12953-12956).
as §1, §2

[4] = target: chimeric protein PPARα-GaI4 (Homo sapiens, UniProt Q07869); conditions: 50 μM, 18 hours contact, CV-1 cells
Procedure: as §3, §1, §2

[5] = serum at D15, fasted 4 hours, mean ± standard error

Sequence of chimeric protein PPARα-GaI4 (Q07869 239-466 limits assumed, change not shown): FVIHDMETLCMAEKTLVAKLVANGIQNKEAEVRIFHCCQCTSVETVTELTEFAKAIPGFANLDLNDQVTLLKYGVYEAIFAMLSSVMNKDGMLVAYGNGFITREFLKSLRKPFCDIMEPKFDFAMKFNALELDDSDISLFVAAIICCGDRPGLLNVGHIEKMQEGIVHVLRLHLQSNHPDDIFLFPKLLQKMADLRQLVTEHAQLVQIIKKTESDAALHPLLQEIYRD
Sequence of chimeric protein PPARγ-GaI4 (P37231 238-503 limits assumed, change not shown): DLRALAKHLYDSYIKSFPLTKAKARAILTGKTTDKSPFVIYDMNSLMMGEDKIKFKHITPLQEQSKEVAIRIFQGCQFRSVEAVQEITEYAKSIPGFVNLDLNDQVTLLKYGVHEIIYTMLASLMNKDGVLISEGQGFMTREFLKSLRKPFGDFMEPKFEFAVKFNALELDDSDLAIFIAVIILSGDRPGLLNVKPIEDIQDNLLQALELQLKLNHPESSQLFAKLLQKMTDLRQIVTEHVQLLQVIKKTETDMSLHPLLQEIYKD

O=C(O)[C@@H](CC=Cc1ccccc1)Oc1ccc(-c2cc3ccccc3s2)cc1 (racemic) [Example 6, (R,S)-2-{[4-(benzo[b]thiophen-2-yl)phenyl]oxy}-5-phenylpent-4-enoic acid]
FFA, % var. (percentage of variation versus control) ([1]; D15, not significant): −10% (ns)
CHOL, % var. (percentage of variation versus control) ([1]; D15, p < 0.01 versus control): −20% (**)
Glycaemia, % var. (percentage of variation versus control) ([1]; D15, p < 0.01 versus control): −50% (**)
HDL-C, % var. (percentage of variation versus control) ([1]; D15, p < 0.01 versus control): −25% (**)
Triglycerides, % var. (percentage of variation versus control) ([1]; D15, p < 0.05 versus control): −31% (*)
CHOL (total cholesterol) [1, 5]: 2.98 ± 0.25 mM
FFA (free fatty acids) [1, 5]: 0.78 ± 0.18 mM
Glycaemia [1, 5]: 14.93 ± 4.29 Mm
HDL-C [1, 5]: 2.31 ± 0.20 Mm
Triglycerides [1, 5]: 1.47 ± 0.59 mM
luciferase activity in absence of the PPAR α or γ ligand binding domain [2]: zero
PPAR activation factor (reporter gene expression relative to control cells) [3]: 21
PPAR activation factor (reporter gene expression relative to control cells) [4]: 7
